The text below walks through data of PMC7787731, “Synthesis and Characterization of New Dihydronaphthalene Candidates as Potent Cytotoxic Agents against MCF-7 Human Cancer Cells” (BioMed Research International, 2020).

Data set [1] has as its system MCF-7 (human breast adenocarcinoma) cell lines. In words: In vitro cytotoxicity MTT assay against breast cancer MCF-7 cells. (In general: Tetrazolium assays rely on reduction of a dye to a coloured formazan, in cell work by metabolically active cells.)
Experimental: Both MCF-7 and MCF10A cells were purchased from American Type Culture Collection (ATCC). Cells were grown in DMEM culture medium (Invitrogen/Life Technologies) supplemented with 10% FBS (Hyclone, USA), 10 μg/mL insulin (Sigma), and 1% penicillin-streptomycin antibiotic solution. Chemicals used were of cell culture grade and were purchased from Sigma or Invitrogen. Prior to the assay, cells (cells density 1.2–1.8 × 10,000 cells/well) were plated in 96-well plate with 100 μL medium and were allowed to grow for 24 h.
In vitro cytotoxic activity of the prepared compounds against breast (MCF-7) cancer cells was assessed using MTT assay [24, 25]. The assay depends on the mitochondrial reduction of the colorless 3-(4,5-methyl-2-thiazolyl)-2,5-diphenyl-2H-tetrazolium bromide (MTT) within viable cells into a dark blue formazan product. […] The supernatant was taken away from each well, and 100 μL of DMSO was added to each well to dissolve the formazan crystals. After mixing with a mechanical plate mixer, a microplate reader was used to measure the absorbance of each well at a wavelength of 570 nm. […] IC50 values were calculated from the linear regression of the corresponding calibration curves using the Origin® 6.1 software.
Results were analyzed with the help of SPSS 9.0 and were presented as mean ± SD of three replicates. The mean comparison between different evaluated groups was performed using ANOVA one-way analysis of variance. Statistical significance was defined when p < 0.05.
Data set [2] deals with normal epithelial breast cells (MCF10A). In words: In vitro cytotoxicity MTT assay against normal breast MCF10A cells. The data set is classed as cell-based. As to conditions: for IC50: Homo sapiens, MCF-10A, MTT assay, normal breast cell line, mean ± SD of three replicates. The text has this: Statistical significance was defined when p < 0.05.
Where [3] appears, read: Homo sapiens, MCF7, 72 h, read-out: IC50 (μM) MCF-7, MTT assay, 0.39-100 μM, 3 days, mean ± SD of three replicates.

Where two headings read alike, the source gives them in different places.

On to `COc1ccc2c(c1)CCCC2=Nn1c(=Nc2ccc(Br)cc2)sc2cc(C#N)c(=S)[nH]c21` [Compound 10, 2-((4-Bromophenyl)imino)-3-((6-methoxy-3,4-dihydronaphthalen-1(2H)-ylidene)amino)-5-thioxo-2,3,4,5-tetrahydrothiazolo [4,5-b]pyridine-6-carbonitrile], for which the melting point (usually the temperature of the solid-liquid transition) was found to be 286 °C. Moreover, the half-inhibitory concentration (IC50) – broadly, the concentration needed to halve the response being measured – in data set [1] (setting [3]) came to 2.83 ± 0.07 µM. For the same compound, the IC50 in data set [2] was found to be 15 ± 0.39 µM.

Consider `COc1ccc2c(c1)CCCC2=NNC(=S)Nc1ccc(Br)cc1` [Compound 3a, N-(4-Bromophenyl)-2-(6-methoxy-3,4-dihydronaphthalen-1(2H)-ylidene)hydrazine-1-carbo thioamide], for which the melting point fell in the range of 191 to 193 °C. For the same compound, the IC50 in data set [1] (setting [3]) was 12.7 ± 0.33 µM. Also, the “decrease in cytotoxicity relative to N-ethyl thiourea derivative 3d” value in data set [1] (MCF-7, N-4-bromophenyl versus N-ethyl substitution) was “more than 3 times”. In addition, inhibition in data set [2] was half-maximal at 35.4 ± 0.64 µM (IC50).

Regarding `COc1ccc2c(c1)CCC/C2=N\n1/c(=N/c2ccc(Br)cc2)sc2cc(C(C)=O)c(C)nc21` [Compound 8], the melting point stood at 128 °C. In data set [1] (setting [3]), the IC50 was 20 µM. For the same compound, the IC50 in data set [1] (read-out: IC50 (μM) MCF-7, MTT assay, 0.39-100 μM, 3 days, mean ± SD of three replicates) was 20 ± 0.52 µM. Also, in data set [2], the IC50 turned out to be 43.7 ± 0.59 µM.

On to `COc1ccc2c(c1)CCCC2=NN1C(=O)CSC1=Nc1ccc(F)cc1` [Compound 4b, 2-((4-Fluorophenyl)imino)-3-((6-methoxy-3,4-dihydronaphthalen-1(2H)-ylidene)amino) thiazolidin-4-one], for which the melting point came out at 190 °C. The IC50 in data set [1] (setting [3]) turned out to be 10.2 ± 0.26 µM. The midpoint of inhibition in data set [2], the IC50, lay at 29.2 ± 0.36 µM.

For the compound `COc1ccc2c(c1)CCCC2=NN1C(=O)C(=CNc2nccs2)SC1=Nc1ccc(Br)cc1` [Compound 12, 2-(4-Bromophenylimino)-3-((6-methoxy-3,4-dihydronaphthalen-1(2H)-ylidene)amino)-5-((thiazol-2-ylamino)methylene)thiazolidin-4-one], the melting point was 152 °C.

For the compound `COc1ccc2c(c1)CCCC2=Nn1c(=Nc2ccc(Br)cc2)sc2cc(C#N)c(=O)[nH]c21` [Compound 9, 2-((4-Bromophenyl)imino)-3-((6-methoxy-3,4-dihydronaphthalen-1(2H)-ylidene)amino)-5-oxo-2,3,4,5-tetrahydrothiazolo [4,5-b]pyridine-6-carbonitrile], the melting point is 224 °C.

The compound `COc1ccc(C2C(C#N)=C(N)Oc3c2sc(=Nc2ccc(Br)cc2)n3N=C2CCCc3cc(OC)ccc32)cc1` (stereo not drawn) [Compound 5a, 5-Amino-2-((4-bromophenyl)imino)-3-((6-methoxy-3,4-dihydronaphthalen-1(2H)-ylidene)amino)-7-(4-methoxyphenyl)-3,7-dihydro-2H-pyrano [2,3-d]thiazole-6-carbonitrile] yielded a melting point of 247 °C. Also, the IC50 in data set [1] (setting [3]) was 0.93 ± 0.02 µM. In data set [2], this compound had an IC50 of 17.2 ± 0.44 µM. Moreover, the “less toxic than Saturosporin towards MCF01A normal cells” value in data set [2] (compared with Saturosporin as worded) was “about 18.45 folds”.

Compound `CCNC(=S)NN=C1CCCc2cc(OC)ccc21` [Compound 3d, N-(4-Ethyl)-2-(6-methoxy-3,4-dihydronaphthalen-1(2H)-ylidene)hydrazine-1-carbothioamide] had a melting point of 150 to 153 °C. Moreover, the IC50 in data set [1] (setting [3]) stood at 3.73 ± 0.09 µM. The IC50 in data set [2] came out at 19.7 ± 0.51 µM.

Turning to `COc1ccc2c(c1)CCCC2=NN1C(=O)CSC1=Nc1ccc(Br)cc1` [Compound 4a, 2-((4-Bromophenyl)imino)-3-((6-methoxy-3,4-dihydronaphthalen-1(2H)-ylidene)amino) thiazolidin-4-one], the melting point was 183 °C. Also, in data set [1] (setting [3]), the IC50 was found to be 28.6 ± 0.74 µM. For the same compound, the IC50 in data set [2] was 68 ± 0.86 µM.

For `COc1ccc2c(c1)CCCC2=NN1C(=O)C(=CN(C)C)SC1=Nc1ccc(Br)cc1` [Compound 6, 2-((4-Bromophenyl)imino)-5-((dimethylamino)methylene)-3-((6-methoxy-3,4-dihydronaphthalene-1(2H)-ylidene)amino)thiazolidin-4-one], the melting point was 236 °C. In addition, in data set [1] (setting [3]), the IC50 turned out to be 7.48 ± 0.19 µM. The midpoint of inhibition in data set [2], the IC50, lay at 17.78 ± 0.16 µM.

Take `COc1ccc2c(c1)CCCC2=Nn1c2c(sc1=Nc1ccc(Oc3ccccc3)cc1)C(c1ccc([N+](=O)[O-])cc1)C(C#N)=C(N)O2` (stereo not drawn) [Compound 5e, 5-Amino-3-((6-methoxy-3,4-dihydronaphthalen-1(2H)-ylidene)amino)-7-(4-nitrophenyl)-2-((4-phenoxyphenyl)imino)--3,7-dihydro-2H-pyrano [2,3-d]thiazole-6-carbonitrile]: the melting point turned out to be 223 °C. For the same compound, in data set [1] (setting [3]), the IC50 worked out at 2.36 ± 0.06 µM. In data set [2], the midpoint of inhibition, the IC50, lay at 14.1 ± 0.36 µM.

`COc1ccc2c(c1)CCCC2=NNC(=S)Nc1ccc(F)cc1` [Compound 3b, N-(4-Fluorophenyl)-2-(6-methoxy-3,4-dihydronaphthalen-1(2H)-ylidene)hydrazine-1-carbo thioamide] registered a melting point of 154 to 156 °C.

`COc1ccc2c(c1)CCCC2=Nn1c2c(sc1=Nc1ccc(Br)cc1)C(c1ccc([N+](=O)[O-])cc1)C(C#N)=C(N)O2` (stereo not drawn) [Compound 5b, 5-Amino-2-((4-bromophenyl)imino)-3-((6-methoxy-3,4-dihydronaphthalen-1(2H)-ylidene)amino)-7-(4-nitrophenyl)-3,7-dihydro-2H-pyrano [2,3-d]thiazole-6-carbonitrile] had a melting point of 213 °C.

As for `COc1ccc2c(c1)CCCC2=NN1C(=O)CSC1=Nc1ccc(Oc2ccccc2)cc1` [Compound 4c, 3-((6-Methoxy-3,4-dihydronaphthalen-1(2H)-ylidene)amino)-2-((4-phenoxyphenyl)imino) thiazolidin-4-one], the melting point came out at 171 °C.

Compound `COc1ccc2c(c1)CCCC2=Nn1c2c(sc1=Nc1ccc(Oc3ccccc3)cc1)C(c1ccco1)C(C#N)=C(N)O2` (stereo not drawn) [Compound 5f, 5-Amino-7-(furan-2-yl)-3-((6-methoxy-3,4-dihydronaphthalen-1(2H)-ylidene)amino)-2-((4-phenoxyphenyl)imino)-3,7-dihydro-2H-pyrano [2,3-d]thiazole-6-carbonitrile] displayed a melting point of 280 °C.

`CCOC(=O)c1cc2sc(=Nc3ccc(Br)cc3)n(N=C3CCCc4cc(OC)ccc43)c2nc1C` [Compound 7, Ethyl-2-((4-bromophenyl)imino)-3-((6-methoxy-3,4-dihydronaphthalen-1(2H)-ylidene)amino)-5-methyl-2,3-dihydrothiazolo [4,5-b]pyridine-6-carboxylate] yielded a melting point of 90 °C.

For `COc1ccc2c(c1)CCCC2=NNC(=S)Nc1ccc(Oc2ccccc2)cc1` [Compound 3c, 2-(6-Methoxy-3,4-dihydronaphthalen-1(2H)-ylidene)-N-(4-phenoxyphenyl)-hydrazine-1-carbo thioamide], the melting point worked out at 171 °C.

With `COc1ccc2c(c1)CCCC2=NN1C(=O)C(=CNc2nc3ccccc3[nH]2)SC1=Nc1ccc(Br)cc1` [Compound 11, 5-((1H-Benzo [d]imidazol-2-ylamino)methylene)-2-(4-bromophenylimino)-3-((6-methoxy-3,4-dihydronaphthalen-1(2H)-ylidene)amino)thiazolidin-4-one], the melting point turned out to be 220 °C.

The compound `COc1ccc(C2C(C#N)=C(N)Oc3c2sc(=Nc2ccc(Oc4ccccc4)cc2)n3N=C2CCCc3cc(OC)ccc32)cc1` (stereo not drawn) [Compound 5d, 5-Amino-3-((6-methoxy-3,4-dihydronaphthalen-1(2H)-ylidene)amino)-7-(4-methoxyphenyl) -2-((4-phenoxyphenyl)imino)--3,7-dihydro-2H-pyrano [2,3-d]thiazole-6-carbonitrile] returned a melting point of 209 °C. Further, the IC50 in data set [1] (setting [3]) amounted to 1.76 ± 0.04 µM. Also, the IC50 in data set [2] came to 16.3 ± 0.42 µM.

Compound `CCN=C1SCC(=O)N1N=C1CCCc2cc(OC)ccc21` [Compound 4d, 2-(Ethylimino)-3-((6-methoxy-3,4-dihydronaphthalen-1(2H)-ylidene)amino)thiazolidin-4-one] displayed a melting point of 117 °C. In addition, the IC50 in data set [1] (setting [3]) came to 10.1 ± 0.26 µM. Half-maximal inhibition in data set [2] (IC50) was put at 30.7 ± 0.53 µM.
